In PubChem BioAssay AID1329 (NMMLSC, 2008):
The source made the active and inactive calls. The rule behind the calls is not given here.

Target: Induced myeloid leukemia cell differentiation protein Mcl-1 (Homo sapiens) (UniProt Q07820)
Experiment: Mcl-1/Bim interaction regulators – biochemical, bead-based flow cytometry, multiplexed, human, dose response (AID 1329)
Settings: Bim peptide-Mcl-1 binding, MCF

Sequence of Induced myeloid leukemia cell differentiation protein Mcl-1 (Homo sapiens) (Q07820 whole entry, looked up): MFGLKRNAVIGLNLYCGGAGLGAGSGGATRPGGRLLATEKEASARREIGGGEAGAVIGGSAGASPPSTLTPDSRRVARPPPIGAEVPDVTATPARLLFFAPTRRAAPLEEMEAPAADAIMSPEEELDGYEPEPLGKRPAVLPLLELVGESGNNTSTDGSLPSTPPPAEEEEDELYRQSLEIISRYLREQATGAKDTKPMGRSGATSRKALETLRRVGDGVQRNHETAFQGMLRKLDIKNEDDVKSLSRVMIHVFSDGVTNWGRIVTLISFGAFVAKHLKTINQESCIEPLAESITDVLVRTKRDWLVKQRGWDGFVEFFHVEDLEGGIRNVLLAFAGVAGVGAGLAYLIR

Row | SMILES | percent span
1 | Cc1cc(N2CCN(C)CC2)nc2ccc(NC(=S)N3CCC4(CC3)OCCO4)cc12 | inactive
2 | CN(C)c1ccc(/C=C2/SC(=O)N(CCN=C3NS(=O)(=O)c4ccccc43)C2=O)cc1 | inactive
3 | O=C(O)c1cccc(NC2=C(Cl)C(=O)c3ccccc3C2=O)c1 | inactive
4 | c1ccc2c(N3CCOCC3)nc(N3CCOCC3)nc2c1 | inactive
5 | CCOC(=O)c1cccc(Nc2ncnc3ccccc23)c1 | inactive
6 | CSc1ccccc1NC(=O)CN(C)CC(=O)Nc1ccc(N2CCOCC2)cc1 | inactive
7 | CCOc1ccccc1C(=O)NC1CC2CCCC(C1)N2C1CC1 (stereo not given) | inactive
8 | CCOC(=O)C1(CC/C(C)=N\NC(N)=O)CC(C)(C)OC1=O (stereo not given) | inactive
9 | CN(C)c1cccc(NC(=O)C2(C)CC2(Cl)Cl)c1 (stereo not given) | inactive
10 | CCc1ccc(NC(=O)CC2NCCNC2=O)cc1 (stereo not given) | inactive
11 | O=C1Nc2ccc([N+](=O)[O-])cc2OC1CCN1CCN(Cc2ccc3c(c2)OCO3)CC1 (stereo not given) | inactive
12 | CCCCC(C(=O)OCC)C(N)Cc1ccc(F)cc1 (stereo not given) | inactive
13 | C=CCN1C(=O)/C(=C/c2ccsc2)SC1=S | inactive
14 | N#CC(C#N)=C1C=CC=CN1/C(=C\c1ccco1)C(=O)c1ccccc1 | inactive
15 | Cc1cc(C)c(C)c(S(=O)(=O)N2CCN(CC(=O)NC(=O)NCc3ccccc3)CC2)c1C | inactive
16 | NNC(=O)COc1ccccc1F | inactive
17 | O=C(CSc1ccc2nnc(-c3ccncc3)n2n1)Nc1nccs1 | inactive
18 | CC(NC(=O)Nc1ccccn1)N1C(=O)C2C3C=CC(C3)C2C1=O (stereo not given) | inactive
19 | COc1cccc(N2CC(C(=O)Nc3nnc(SCC(=O)c4ccccc4)s3)CC2=O)c1 (stereo not given) | inactive
20 | O=C(OCC(=O)c1ccc[nH]1)c1ccccc1 | inactive
21 | Cc1nc2scc(-c3ccccc3)c2c(=O)n1N=C1C=CC(=O)C=C1 | inactive
22 | COc1ccc(/C=C2\SC(=O)NC2=S)cc1OC | inactive
23 | CCN1CCN(c2cc(C)c3cc(NC(=S)N4CCN(c5ccc(F)cc5)CC4)ccc3n2)CC1 | inactive
24 | Cn1cccc1CC(=O)N/N=C\c1ccccc1 | inactive
25 | O=C(CC1NCCNC1=O)Nc1cccc([N+](=O)[O-])c1 (stereo not given) | inactive
26 | CN1/C(=C\C(=O)Nc2ccc(Cl)cc2)C(C)(C)c2ccccc21 | inactive

Row | SMILES | percent span
27 | CCOC(=O)C1(Cc2cccc(OC)c2)CCN(Cc2cccc(OC)c2OC)CC1 | inactive
28 | Cc1ccccc1/C=N/Nc1ccnc2cc(Cl)ccc12 | inactive
29 | O=C(c1ccccc1NS(=O)(=O)c1ccc(Br)s1)N1CCCC1 | inactive
30 | COc1ccc2oc(-c3ccccc3)c(C(=O)N3CCOCC3)c2c1 | inactive
31 | Cc1c(NC2=C(Cl)C(=O)N(c3ccccc3Cl)C2=O)c(=O)n(-c2ccccc2)n1C | inactive
32 | CC1Nc2ccccc2C(=O)N1NS(=O)(=O)c1ccccc1 (stereo not given) | inactive
33 | OCCN1CCN(CCCc2c3c(cc4c2CCC4)CCC3)CC1 | inactive
34 | CCn1c(C)nc2cc(C(=O)N/N=C/c3ccc(O)c(O)c3O)ccc21 | inactive
35 | O=C(CCc1ccccc1)N1CCN(c2ccccn2)CC1 | inactive
36 | O=C(OCc1nc2ccccc2[nH]1)C12CC3CC(CC(C3)C1)C2 | inactive
37 | CC1C=CCC2C(=O)N(c3ccc(OC(=O)c4cccs4)cc3)C(=O)C12 (stereo not given) | inactive
38 | CNc1ccc(Br)cc(C(=O)/C=C/c2cc(OC)ccc2OC)c1=O | inactive
39 | O=C(/C=C/c1c(F)cccc1Cl)Nc1ccncc1 | inactive
40 | Fc1ccc(C2=Nn3c(Cc4ccccc4F)nnc3SC2)cc1 | inactive
41 | Cc1cc(NC(=O)CCSc2ccccc2)ccc1Br | inactive
42 | Cc1ccc(NC(=O)c2cc(S(=O)(=O)NCCC3=CCCCC3)ccc2F)cc1F | inactive
43 | CCc1ccc(/C=C/C(=O)c2cc(Br)ccc(=O)c2O)cc1 | inactive
44 | COc1ccc(OC)c(NC(=O)COC(=O)c2cc3c(s2)CCC3)c1 | inactive
45 | O=C(CSc1nnc(-c2ccccc2)c(-c2ccccc2)n1)N1CCc2ccccc21 | inactive
46 | C#CCOCCOCCOCCNc1nc(N2CCN(C(=O)[C@H](CCCCN)n3cc(CCCC)nn3)CC2)nc(N2CCN(C(=O)[C@H](Cc3ccc(O)cc3)n3cc(CCO)nn3)CC2)n1 | inactive
47 | Cc1ccccc1-c1nc(-c2ccc(NC(=O)c3ccc4c(c3)OCO4)cc2)no1 | inactive
48 | O=C1CSc2ccc(C(=O)Nc3cccc(S(=O)(=O)Nc4ccc(Br)cc4)c3)cc2N1 | inactive
49 | COc1cc(N=c2ssnc2Cl)cc(OC)c1OC | inactive
50 | CC(C)=C1C(=O)NN(c2ccc(C)c(Cl)c2)C1=O | inactive
51 | O=C(NCc1ccccc1)C(=O)Nc1nc(C23CC4CC(CC(C4)C2)C3)cs1 | inactive
52 | CCN1/C(=C/c2ccc3cc(C)ccc3[n+]2CC)Sc2cc(C)c(C)cc21 | inactive

Continued, values first:

Row | percent span | SMILES
53 | inactive | CC(C)Cc1cc(-c2ccco2)c(C#N)c(N)n1
54 | inactive | Cc1cc(C)nc(/N=c2/ssnc2Cl)c1
55 | inactive | CCCCNC(=O)c1ccc2nc(-c3ccco3)c(-c3ccco3)nc2c1
56 | inactive | O=C1c2ccccc2-c2onc3ccc(NCCCn4ccnc4)c1c23
57 | inactive | COc1ccc(CC(=O)Nc2ccc(-c3nc4cc(C)ccc4o3)c(O)c2)cc1OC
58 | inactive | CCn1cc(C=C2C(=O)c3ccccc3C2=O)c2ccccc21
59 | inactive | COc1ccc(NC(=O)Cc2c(F)cccc2Cl)c(OC)c1
60 | inactive | CCOC(=O)CSc1nnc(-c2cccc(Cl)c2)n1CC
61 | inactive | COc1cccc2c(SCC(=O)N/N=C/c3ccc(O)c(O)c3)cc(C)nc12
62 | inactive | CNCc1ccccc1Sc1ccc(O)c(O)c1
63 | inactive | COC(=O)c1sc(NC(=O)c2ccc(Cn3cc(Cl)cn3)o2)c(C#N)c1C
64 | inactive | O=C(Nc1cccc(-c2ccc3nncn3n2)c1)c1ccco1
65 | inactive | CCOC(=O)C1=C(Cc2ccc(C)cc2)C(=O)c2ccccc2C1=O
66 | inactive | CCOC(=O)CSC1=NC(=O)/C(=C/c2ccc(Br)cc2)S1
67 | inactive | CCOCCOc1nc2c(c(=O)n(C)c(=O)n2C)n1CCc1ccccc1
68 | inactive | CCN(C(=O)COC(=O)c1cc(-c2ccc(C)o2)nc2ccccc12)C1CCS(=O)(=O)C1 (stereo not given)
69 | inactive | CN1C2C=C3C(C#N)=C(N)C(C#N)(C#N)[C@@H](c4ccsc4)[C@@H]3C1CC2 (stereo not given in full)
70 | inactive | COc1cc(N=c2ssnc2Cl)cc(OC)c1
71 | inactive | CC(=O)OCCCNc1cc(Sc2nc3ccccc3s2)c2nonc2c1[N+](=O)[O-]
72 | inactive | CCc1cccc(CC)c1-n1c(-c2cccnc2)n[nH]c1=S
73 | inactive | Cc1cccc(N2C(S)=C(C#N)C(=O)NC2c2cccs2)c1 (stereo not given)
74 | inactive | CCCC(=O)OCCNc1cc(Sc2nccn2C)c2nonc2c1[N+](=O)[O-]
75 | inactive | CC(=O)Nc1ccc2nc(CN3CCN(CC(C)C)C(CCO)C3)ccc2c1 (stereo not given)
